Reference: the NIST ThermoML archive (doi:10.1016/j.jct.2012.11.026)

Key:
[1] = Solid-liquid equilibrium temperature; details: Crystal, visual observation
[2] = Liquid-liquid equilibrium temperature; details: Nematic liquid crystal, visual observation

CCCCCOc1ccc(-c2ccc(C#N)cc2)cc1 [4'-pentoxy-4-cyanobiphenyl]
Details	Liquid-liquid equilibrium temperature, [2] [K]	Solid-liquid equilibrium temperature, [1] [K]
399 kPa	341.58	326.84
1399 kPa	341.96	327.21
2400 kPa	342.38	327.52
3001 kPa	–	327.72
3400 kPa	–	327.86
3401 kPa	342.75	–
3901 kPa	342.91	–
4401 kPa	343.13	328.2
4902 kPa	343.32	–
5401 kPa	–	328.54
5402 kPa	343.51	–
6402 kPa	–	328.84
6403 kPa	343.9	–
7403 kPa	–	329.23
7404 kPa	344.3	–
8403 kPa	–	329.55
8404 kPa	344.7	–
9405 kPa	345.1	329.86
10005 kPa	345.33	330.08
